The values that follow are results of earlier work, collected in publication PMC10288581 (Frontiers in Pharmacology, 2023).

Some results are limits rather than exact numbers.

For series [1] the following is noted: ref Kristin et al., 2017; cited from earlier work.
In another series the test system is P-glycoprotein. Details: method as in Vermeer et al., 2016. Conditions: in-vitro data; ref Vermeer et al., 2016; cited from earlier work.
Series [2] has as its system CYP3A4. Details: method as in Obach et al., 2006; Galetin et al., 2007. Conditions: ref Obach et al., 2006; Galetin et al., 2007; cited from earlier work.
A further series concerns OATP1B1. Details: method as in Müller and Fromm, 2011; Vermeer et al., 2016. Conditions: ref Müller and Fromm, 2011; Vermeer et al., 2016; cited from earlier work.
In a further series the test system is 2C9. Details: method as in Obach et al., 2006. The conditions noted are these: in-vitro data; ref Obach et al., 2006; cited from earlier work.
In the next series the test system is OATP 1B3. Details: method as in Müller and Fromm, 2011; Vermeer et al., 2016. The conditions noted are these: ref Müller and Fromm, 2011; Vermeer et al., 2016; cited from earlier work.
For series [3] the following is noted: ref Langtry and Brogden, 1997; cited from earlier work.
The test system of a further series is MRP2. Details: method as in Vermeer et al., 2016. The conditions noted are these: in-vitro data; ref Vermeer et al., 2016; cited from earlier work.
For series [4], the system named is CYP3A4. Details: method as in Elsby et al., 2019. Conditions: ref Elsby et al., 2019; read-out: inhibition constant Ki; cited from earlier work.
Another series has as its system CYP2C19. Details: method as in Obach et al., 2006. Conditions: in-vitro data; ref Obach et al., 2006; cited from earlier work.

On to `CC[C@H]1OC(=O)[C@H](C)[C@@H](O[C@H]2C[C@@](C)(OC)[C@@H](O)[C@H](C)O2)[C@H](C)[C@@H](O[C@@H]2O[C@H](C)C[C@H](N(C)C)[C@H]2O)[C@](C)(OC)C[C@@H](C)C(=O)[C@H](C)[C@@H](O)[C@]1(C)O` [clarithromycin, 6-O-Methylerthromycin], for which the BCS class result in series [1] was “class-II”. Besides, the IC50 was 8.9 ± 0.5 µM in the series with P-glycoprotein, 5.3 ± 1.3 µM in the series on OATP1B1, 14 ± 2 µM in the series on OATP 1B3 and over 50 µM in the series on MRP2. In addition, the “potential to inhibit the CYP3A4 at the intestinal level” value in the series with CYP3A4 [2] is listed as 60%–70. The “inhibitory concentration of 2C9” value in the series on 2C9 was 4%. Also, in series [3], the protein binding is 42%–72. Moreover, the inhibition constant Ki in the series with CYP3A4 [4] is […]. The “inhibitory concentration of CYP2C19” value in the series on CYP2C19 was 11%.
